By melting point is commonly meant the temperature of the solid-liquid transition.

Data on 24 compounds can be found in US8329755B2, “Methods for treating retroviral infections” (Roche Palo Alto LLC, priority 2004, dated 2012).

SMILES strings stand for the structures.

In the case of `Cc1cc(NS(C)(=O)=O)ccc1NC(=O)Cc1ccc(C)c(Oc2cc(Cl)cc(C#N)c2)c1` [Compound I-237, 2-[3-(3-Chloro-5-cyano-phenoxy)-4-methyl-phenyl]-N-(4-methanesulfonylamino-2-methyl-phenyl)-acetamide], the melting point is 180 to 181.4 °C.

The compound `Cc1cc(S(=O)(=O)NC2CCOCC2)ccc1NC(=O)Cc1ccc(C)c(Oc2cc(Cl)cc(C#N)c2)c1` [Compound I-128, 2-[3-(3-Chloro-5-cyano-phenoxy)-4-methyl-phenyl]-N-[2-methyl-4-(tetrahydro-pyran-4-ylsulfamoyl)-phenyl]-acetamide] registered a melting point of 171.7 to 172.6 °C.

As for `Cc1cc(S(=O)(=O)CCCO)ccc1NC(=O)Cc1ccc(C)c(Oc2cc(Cl)cc(C#N)c2)c1` [Compound I-157, 2-[3-(3-Chloro-5-cyano-phenoxy)-4-methyl-phenyl]-N-[4-(3-hydroxy-propane-1-sulfonyl)-2-methyl-phenyl]-acetamide], the melting point was in the range of 78.9 to 79.5 °C.

`Cc1cc(N2CCCCS2(=O)=O)ccc1NC(=O)Cc1ccc(C)c(Oc2cc(Cl)cc(C#N)c2)c1` [Compound I-158, 2-[3-(3-Chloro-5-cyano-phenoxy)-4-methyl-phenyl]-N-[4-(1,1-dioxo-1λ^6-[1,2]thiazinan-2-yl)-2-methyl-phenyl]-acetamide]: the melting point was in the range of 84.3 to 85.6 °C.

The compound `N#Cc1cc(Cl)cc(Oc2c(Cl)ccc(CC(=O)Nc3ccc(S(=O)(=O)NC(=O)CCC(=O)O)cc3Cl)c2F)c1` [Compound I-188, 4-(3-Chloro-4-{2-[4-chloro-3-(3-chloro-5-cyano-phenoxy)-2-fluoro-phenyl]-acetylamino}-benzenesulfonylamino)-4-oxo-butyric acid] registered a melting point of 143.4 to 144 °C.

For the compound `CCc1ccc(CC(=O)Nc2ccc(S(N)(=O)=O)cc2Cl)cc1Oc1cc(C#N)cc(C#N)c1Cl` [Compound I-54, 2-[3-(2-Chloro-3,5-dicyano-phenoxy)-4-ethyl-phenyl]-N-(2-chloro-4-sulfamoyl-phenyl)-acetamide], the melting point was in the range of 180.3 to 183.1 °C.

Regarding `CNS(=O)(=O)c1ccc(NC(=O)Cc2ccc(Cl)c(Oc3cc(Cl)cc(C#N)c3)c2F)c(C)c1` [Compound I-108, 2-[4-Chloro-3-(3-chloro-5-cyano-phenoxy)-2-fluoro-phenyl]-N-(2-methyl-4-methylsulfamoyl-phenyl)-acetamide], the melting point lay within 204.4 to 207.3 °C.

In the case of `CCc1ccc(CC(=O)Nc2ccccc2Cl)cc1Oc1cc(Cl)ccc1Br` [Compound I-16, 2-[3-(2-Bromo-5-chloro-phenoxy)-4-ethyl-phenyl]-N-(2-chloro-phenyl)-acetamide], the melting point lay within 154 to 155.5 °C.

In the case of `Cc1cc(S(=O)(=O)NCC(C)O)ccc1NC(=O)Cc1ccc(C)c(Oc2cc(Cl)cc(C#N)c2)c1` (stereo not drawn) [Compound I-129, 2-[3-(3-Chloro-5-cyano-phenoxy)-4-methyl-phenyl]-N-[4-(2-hydroxy-propylsulfamoyl)-2-methyl-phenyl]-acetamide], the melting point fell in the range of 172.2 to 173.4 °C.

`CCc1ccc(CC(=O)Nc2ccccc2Cl)cc1Oc1cc(Cl)cc(Br)c1Cl` [Compound I-37, 2-[3-(3-Bromo-2,5-dichloro-phenoxy)-4-ethyl-phenyl]-N-(2-chloro-phenyl)-acetamide] registered a melting point of 146.5 to 147.6 °C.

In turn, `Cc1ccc(CC(=O)Nc2ccc(CC(=O)O)cc2Cl)cc1Oc1cc(Cl)cc(C#N)c1` [Compound I-236, (3-Chloro-4-{2-[3-(3-chloro-5-cyano-phenoxy)-4-methyl-phenyl]-acetylamino}-phenyl)-acetic acid] had a melting point of 159.6 to 160 °C.

The compound `COc1ccc(CC(=O)Nc2ccc(S(N)(=O)=O)cc2Cl)cc1Oc1cc(C#N)ccc1Cl` [Compound I-67, 2-[3-(2-Chloro-5-cyano-phenoxy)-4-methoxy-phenyl]-N-(2-chloro-4-sulfamoyl-phenyl)-acetamide] yielded a melting point of 214.6 to 216.4 °C.

In turn, `COc1ccc(CC(=O)Nc2ccc(S(N)(=O)=O)cc2Cl)cc1Oc1cc(Cl)cc(C#N)c1` [Compound I-64, 2-[3-(3-Chloro-5-cyano-phenoxy)-4-methoxy-phenyl]-N-(2-chloro-4-sulfamoyl-phenyl)-acetamide] returned a melting point of 186.3 to 189.7 °C.

Compound `NS(=O)(=O)c1ccc(NC(=O)Cc2cc(Oc3cc(Cl)cc(Cl)c3)c3occc3c2)c(Cl)c1` [Compound I-149, N-(2-Chloro-4-sulfamoyl-phenyl)-2-[7-(3,5-dichloro-phenoxy)-benzofuran-5-yl]-acetamide] showed a melting point of 215.1 to 216.6 °C.

On to `Cc1cc(S(N)(=O)=O)ccc1NC(=O)Cc1ccc(C)c(Oc2cc(Cl)ccc2Br)c1` [Compound I-31, 2-[3-(2-Bromo-5-chloro-phenoxy)-4-methyl-phenyl]-N-(2-methyl-4-sulfamoyl-phenyl)-acetamide], for which the melting point fell in the range of 200.5 to 203.5 °C.

`COc1cc(CC(=O)Nc2ccc(S(N)(=O)=O)cc2)cc(Oc2cc(C#N)ccc2Cl)c1` [Compound I-102, 2-[3-(2-Chloro-5-cyano-phenoxy)-5-methoxy-phenyl]-N-(4-sulfamoyl-phenyl)-acetamide]: the melting point is 180.5 to 181.3 °C.

`CCc1ccc(CC(=O)Nc2ccc(S(N)(=O)=O)cc2C)cc1Oc1cc(C#N)cc(C#N)c1Cl` [Compound I-53, 2-[3-(2-Chloro-3,5-dicyano-phenoxy)-4-ethyl-phenyl]-N-(2-methyl-4-sulfamoyl-phenyl)-acetamide] registered a melting point of 199.4 to 205.3 °C.

In the case of `O=C(Cc1ccc(Cl)c(Sc2cc(Cl)ccc2Br)c1)Nc1ccccc1Cl` [Compound I-244, 2-[3-(2-Bromo-5-chloro-phenylsulfanyl)-4-chloro-phenyl]-N-(2-chloro-phenyl)-acetamide], the melting point was 172.2 to 172.8 °C.

For `CC(=O)Nc1cc(C)c(NC(=O)Cc2ccc(C)c(Oc3cc(Cl)cc(C#N)c3)c2)cn1` [Compound I-228, N-(6-Acetylamino-4-methyl-pyridin-3-yl)-2-[3-(3-chloro-5-cyano-phenoxy)-4-methyl-phenyl]-acetamide], the melting point was in the range of 222.5 to 224 °C.

In the case of `Cc1cc(S(N)(=O)=O)ccc1NC(=O)Cc1ccc(Cl)c(Oc2cc(Br)cc(C#N)c2)c1F` [Compound I-185, 2-[3-(3-Bromo-5-cyano-phenoxy)-4-chloro-2-fluoro-phenyl]-N-(2-methyl-4-sulfamoyl-phenyl)-acetamide], the melting point was 246 to 250.6 °C.

Turning to `Cc1cc(S(N)(=O)=O)ccc1NC(=O)Cc1ccc(Cl)c(Oc2c(C)cc(C#N)cc2C)c1` [Compound I-56, 2-[4-Chloro-3-(4-cyano-2,6-dimethyl-phenoxy)-phenyl]-N-(2-methyl-4-sulfamoyl-phenyl)-acetamide], the melting point lay in the range of 232.1 to 234.6 °C.

`N#Cc1cc(C#N)cc(Sc2cc(CC(=O)Nc3ccc(S(N)(=O)=O)cc3)ccc2Cl)c1` [Compound I-242, 2-[4-Chloro-3-(3,5-dicyano-phenylsulfanyl)-phenyl]-N-(4-sulfamoyl-phenyl)-acetamide] registered a melting point of 247.9 to 250.9 °C.

On to `CCc1ccc(CC(=O)Nc2ccccc2Cl)cc1Oc1cc(Cl)ccc1C#N` [Compound I-18, 2-[3-(5-Chloro-2-cyano-phenoxy)-4-ethyl-phenyl]-N-(2-chloro-phenyl)-acetamide], for which the melting point lay within 168 to 169.9 °C.

Regarding `N#Cc1cc(Cl)cc(Oc2c(Cl)ccc(CC(=O)Nc3ccc(S(=O)(=O)NC(=O)CO)cc3Cl)c2F)c1.[Na]`, the melting point fell in the range of 178 to 179.5 °C.
